{"source": "patent US20030130200A1", "about": "“Small peptides and methods for treatment of asthma and inflammation” (Hisatek, LLC, priority 1997, published 2003)", "test_system": "OVA-sensitized/challenged mice", "assay": "OVA allergen-induced airway inflammation mouse model, 28-day protocol, HK-X i.n. before challenges on days 25, 26, 27", "assay_type": "in vivo, mouse (BALB/c)", "description": "The above-described murine model reproduces key features of human asthma. Late-phase allergen-specific pulmonary disease was induced in normal BALB/c mice using ovalbumin (OVA) as allergen. One protocol includes immunization of mice with i.p. OVA on days 1 and 14, and intranasal (i.n.) administration of OVA on days 14, 25, 26. and 27.\nIn a mouse model of allergen-induced airway inflammation, the role of mast cell in airway eosinophil infiltration, mucus release, and hyper-responsiveness to methacholine was examined.\nMaterials were used as described above. Mice received an i.p. injection of 0.2 ml (100 ug) of OVA complexed with aluminum potassium sulfate (alum) on day 0 and 14. On days 14, 25, 26, and 27, mice were anesthetized with 0.2 ml i.p. of ketamine (0.44 mg/ml)/xylazine (6.3 mg/ml) in normal saline before receiving an intranasal (i.n.) dose of 100 ug OVA in 0.05 ml normal saline on days 25, 26, and 27. Lung tissue was obtained 24 hours after the last i.n. challenge on day 28. The control group received normal saline with alum i.p. on days 0 and 14 and normal saline without alum i.n. on days 14, 25, 26, and 27. To assess the effect of HK-X inhibition on OVA induced asthma, HK-X (10 ug/ml) was given i.n. 30 minutes before each i.n. challenge on days 25, 26, and 27.\nAfter tying off the left lung at the mainstem bronchus, the right lung was […] three times with 0.4 ml of normal saline. Bronchoalveolar lavage (BAL) fluid cells from a 0.05 ml aliquot of the pooled sample wee counted using a hemocytometer and the remaining fluid centrifuged at 4° C. for 10 minutes at 200 g. After resuspension of the cell pellet in normal saline containing 10% BSA, BAL cell smears were made on glass slides. To stain eosinophils, dried slides were stained with Discombe's diluting fluid (0.05% aqueous eosin and 5% (v/v) acetone in distilled water) for 5-8 minutes, rinsed with water for 0.5 minutes and counterstained with […] for 2 minutes\nFollowing BAL, the trachea and left lung (upper and lower lobes) were obtained and fixed in 10% buffered formalin solution at 20° C. forlS hours. After the tissues were processed and embeded in paraffin, the tissues were cut into 5 μm sections and stained with Discombe's solution and counterstained with methylene blue as described above or stained with Hematoxylin and eosin. The eosinophil number per unit airway area (2200 μm^2) was determined by morphometry as previously described. Airway mucus was identified by a variety of staining methods, i.e., methylene blue, Hematoxylin and eosin, mucicarmine, toluidine blue, alcian blue, and alcian blue/periodic acid Schiff (PAS) reaction. […] The degree of mucus plugging of the airways (0.5-0.8 mm in diameter) also was assessed by morphometry. […]", "note": "“Also recorded” adds a separate entry of the source. Where no end group is shown, it is not given here. The star is where a group is joined. For = O=C*", "data": [{"substance": "f-Met-Leu-Phe-Phe (For-MLFF) [Example 9]", "values": [{"measurement": "Cellular infiltration during asthmatic attack (histopathology)", "setting": "10 μg HK-X intranasally 30 minutes prior to challenge, FIG. 9", "value": "reduces the cellular infiltration"}, {"measurement": "Eosinophil influx into the lung tissue and BAL fluid", "setting": "OVA sensitized/challenged mice, FIGS. 8A, 9A, 10A", "value": "markedly reduced"}, {"measurement": "Airway mucus release / secretion", "setting": "OVA sensitized/challenged mice, histopathology FIGS. 8A, 9A, 10A, listed as HK-X", "value": "prevented airway mucus release; also recorded: blocked the airway mucus release; also recorded: prevents the airway mucus secretion; also recorded: reduces the mucus secretion in airways"}, {"measurement": "Reduction of eosinophil influx into the lung interstitium (morphometric analysis)", "setting": "p<0.006 compared to OVA without HK-X, FIG. 11", "value": 90, "unit": "%"}]}]}
